# Reference: PubChem BioAssay (NCI)
#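 GI50: concentration for 50% inhibition of growth. At the TGI there is no net growth.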
# Key:
# Assay in all cases: growth of human tumour cells (NCI), 384-well format
# 786-0 renal = tested on: 786-0 renal
# A498 renal = tested on: A498 renal
# A549 NSCLC = tested on: A549 NSCLC
# ACHN renal = tested on: ACHN renal
# BT-549 breast = tested on: BT-549 breast
# CAKI-1 renal = tested on: CAKI-1 renal
# CCRF-CEM leukemia = tested on: CCRF-CEM leukemia
# COLO 205 colon = tested on: COLO 205 colon
# DU-145 prostate = tested on: DU-145 prostate
# EKVX NSCLC = tested on: EKVX NSCLC
# HCC-2998 colon = tested on: HCC-2998 colon
# HCT-116 colon = tested on: HCT-116 colon
# HCT-15 colon = tested on: HCT-15 colon
# HL-60(TB) leukemia = tested on: HL-60(TB) leukemia
# HOP-62 NSCLC = tested on: HOP-62 NSCLC
# HOP-92 NSCLC = tested on: HOP-92 NSCLC
# HS 578T breast = tested on: HS 578T breast
# HT29 colon = tested on: HT29 colon
# IGROV1 ovarian = tested on: IGROV1 ovarian
# K-562 leukemia = tested on: K-562 leukemia
# KM12 colon = tested on: KM12 colon
# LOX IMVI melanoma = tested on: LOX IMVI melanoma
# M14 melanoma = tested on: M14 melanoma
# MALME-3M melanoma = tested on: MALME-3M melanoma
# MCF7 breast = tested on: MCF7 breast
# MDA-MB-231 breast = tested on: MDA-MB-231 breast
# MDA-MB-435 melanoma = tested on: MDA-MB-435 melanoma
# MDA-MB-468 breast = tested on: MDA-MB-468 breast
# MOLT-4 leukemia = tested on: MOLT-4 leukemia
# NCI-H226 lung = tested on: NCI-H226 lung
smiles,measurement,setting,value
C=CC(=O)N1CCC(Oc2cc3c(Nc4ccc(Cl)c(Cl)c4F)ncnc3cc2OC)CC1,GI50,786-0 renal,1310 nM
same,TGI,786-0 renal,4740 nM
same,GI50,A498 renal,137 nM
same,TGI,A498 renal,1950 nM
same,GI50,A549 NSCLC,1240 nM
same,TGI,A549 NSCLC,12000 nM
same,GI50,ACHN renal,< 10 nM
same,TGI,ACHN renal,11200 nM
same,GI50,BT-549 breast,1110 nM
same,TGI,BT-549 breast,3990 nM
same,GI50,CAKI-1 renal,198 nM
same,TGI,CAKI-1 renal,1700 nM
same,GI50,CCRF-CEM leukemia,1260 nM
same,TGI,CCRF-CEM leukemia,2740 nM
same,GI50,COLO 205 colon,4340 nM
same,TGI,COLO 205 colon,18400 nM
same,GI50,DU-145 prostate,879 nM
same,TGI,DU-145 prostate,14600 nM
same,GI50,EKVX NSCLC,< 10 nM
same,TGI,EKVX NSCLC,2140 nM
same,GI50,HCC-2998 colon,1620 nM
same,TGI,HCC-2998 colon,7470 nM
same,GI50,HCT-116 colon,3730 nM
same,TGI,HCT-116 colon,15200 nM
same,GI50,HCT-15 colon,2380 nM
same,TGI,HCT-15 colon,12700 nM
same,GI50,HL-60(TB) leukemia,1940 nM
same,TGI,HL-60(TB) leukemia,3490 nM
same,GI50,HOP-62 NSCLC,2270 nM
same,TGI,HOP-62 NSCLC,8530 nM
same,GI50,HOP-92 NSCLC,1390 nM
same,TGI,HOP-92 NSCLC,4020 nM
same,GI50,HS 578T breast,1040 nM
same,TGI,HS 578T breast,2460 nM
same,GI50,HT29 colon,2420 nM
same,TGI,HT29 colon,11900 nM
same,GI50,IGROV1 ovarian,< 10 nM
same,TGI,IGROV1 ovarian,817 nM
same,GI50,K-562 leukemia,1270 nM
same,TGI,K-562 leukemia,2880 nM
same,GI50,KM12 colon,3070 nM
same,TGI,KM12 colon,12700 nM
same,GI50,LOX IMVI melanoma,1620 nM
same,TGI,LOX IMVI melanoma,3470 nM
same,GI50,M14 melanoma,3010 nM
same,TGI,M14 melanoma,15400 nM
same,GI50,MALME-3M melanoma,2520 nM
same,TGI,MALME-3M melanoma,11200 nM
same,GI50,MCF7 breast,690 nM
same,TGI,MCF7 breast,14100 nM
same,GI50,MDA-MB-231 breast,2100 nM
same,TGI,MDA-MB-231 breast,14000 nM
same,GI50,MDA-MB-435 melanoma,2640 nM
same,TGI,MDA-MB-435 melanoma,10900 nM
same,GI50,MDA-MB-468 breast,< 10 nM
same,TGI,MDA-MB-468 breast,< 10 nM
same,GI50,MOLT-4 leukemia,430 nM
same,TGI,MOLT-4 leukemia,1880 nM
same,GI50,NCI-H226 lung,813 nM
